Structures can show the parent of a compound that is named as a salt. Where two headings read alike, the source gives them in different places.
How the values were obtained:
[1] = tested on: Enterococcus faecalis (ATCC29212); test: MIC, broth microdilution (CLSI), Enterococcus faecalis; type: cell-based
[2] = tested on: Pseudomonas aeruginosa (ATCC27853); test: MIC, broth microdilution (CLSI), Pseudomonas aeruginosa; type: cell-based
[3] = tested on: Staphylococcus aureus subsp. aureus (ATCC29213); test: MIC, broth microdilution (CLSI), Staphylococcus aureus ATCC29213; type: cell-based; conditions: Staphylococcus aureus
[4] = tested on: E. coli RNase P RNA, M1 RNA; test: Inhibition of bacterial RNase P activity, IC50 determination (cleavage of pATSerUG by M1 RNA); type: biochemical; conditions: NI: No inhibition
[5] = tested on: S. aureus MRSA ATCC 33591; test: MIC, S. aureus MRSA ATCC 33591; type: cell-based; conditions: Staphylococcus aureus, read-out: S. aureus MRSA ATCC 33591 MIC
E. faecium ATCC 700221 = test: MIC, E. faecium ATCC 700221; type: cell-based; conditions: Enterococcus faecium
S. pneumoniae ATCC 49619 = test: MIC, S. pneumoniae ATCC 49619; type: cell-based; conditions: Streptococcus pneumoniae, ATCC49619; Table XIV A. Gram-positive bacteria
[6] = tested on: E. coli JW5503 (efflux defective); test: MIC, E. coli JW5503 (efflux defective); type: cell-based; conditions: Escherichia coli, read-out: E. coli JW5503 (efflux defective) MIC
K. pneumoniae ATCC 43816 = test: MIC, K. pneumoniae ATCC 43816; type: cell-based; conditions: Klebsiella pneumoniae, ATCC43816; Table XIV B. Gram-negative bacteria
H. influenzae ATCC 49247 = test: MIC, H. influenzae ATCC 49247; type: cell-based; conditions: Haemophilus influenzae, ATCC49247; Table XIV B. Gram-negative bacteria
A. baumannii ATCC 17978 = test: MIC, A. baumannii ATCC 17978; type: cell-based; conditions: Acinetobacter baumannii, ATCC17978; Table XIV B. Gram-negative bacteria
[7] = tested on: P. aeruginosa NTUH974 (MDR); test: MIC, P. aeruginosa NTUH974 (MDR); type: cell-based; conditions: Pseudomonas aeruginosa, read-out: P. aeruginosa NTUH974 (MDR) MIC
[8] = tested on: N. gonorrhoeae ATCC 700825; test: MIC, N. gonorrhoeae ATCC 700825; type: cell-based; conditions: Neisseria gonorrhoeae, ATCC700825; Table XIV B. Gram-negative bacteria
[9] = tested on: Escherichia coli (ATCC25922); test: MIC, broth microdilution (CLSI), Escherichia coli; conditions: Escherichia coli
[10] = tested on: Staphylococcus aureus (ATCC25923); test: MIC, broth microdilution (CLSI), Staphylococcus aureus ATCC25923; conditions: Staphylococcus aureus, ATCC25923, read-out: S. aureus ATCC 25923 MIC
Description: Initial minimal inhibitory concentration (MIC) tests were made on two bacterial strains: • Escherichia coli (ATCC25922) • Staphylococcus aureus (ATCC25923).
MIC values were determined using the standard broth microdilution procedure based on the guidelines by the Clinical and Laboratory Standards Institute (CLSI). Briefly, the compounds were dissolved in DMSO to 10 mM. They were diluted in cation-adjusted Mueller-Hinton broth (CAMHB) to four times the highest concentration tested. A serial two-fold dilution in CAMHB was done in microdilution plates. The inoculum of bacterial strain to be tested was prepared by making a suspension of colonies from an 18 to 24 hours old plate in CAMHB. The inoculum was diluted so that, after inoculation, each well contained approximately 5×10^5 CFU/mL. To a volume of 50 μl compound in CA 3 an equal volume of inoculum was added. The tray was sealed in a plastic bag and incubated at 35° C. for 16 to 20 hours. To aid in the detection of growth the dye resazurin was added to a final concentration 0.001% and incubated at room temperature for 1 h. Reduction of resazurin, and therefore bacterial growth, was seen as a change from blue to pink.

[11] = ATCC29212, Table XIV A. Gram-positive bacteria, read-out: E. faecalis ATCC 29212 MIC
[12] = ATCC27853, Table XIV B. Gram-negative bacteria, read-out: P. aeruginosa ATCC 27853 MIC
[13] = ATCC29213, Table XIV A. Gram-positive bacteria, read-out: S. aureus ATCC 29213 MIC
[14] = Table XIV A. Gram-positive bacteria
[15] = ATCC700221, Table XIV A. Gram-positive bacteria, read-out: E. faecium ATCC 700221 MIC
[16] = Table XIV B. Gram-negative bacteria
[17] = ATCC25922, read-out: E. coli ATCC 25922 MIC, Table XIII
[18] = ATCC25922, read-out: E. coli ATCC 25922 MIC, Table XIV B. Gram-negative bacteria
[19] = ATCC29213, Table XIII, read-out: S. aureus ATCC 29213 MIC
[20] = ATCC29212, read-out: E. faecalis ATCC 29212 MIC
[21] = ATCC27853, read-out: P. aeruginosa ATCC 27853 MIC
[22] = ATCC29213, read-out: S. aureus ATCC 29213 MIC, Table XIV A. Gram-positive bacteria
[23] = ATCC700221, read-out: E. faecium ATCC 700221 MIC

Row | Structure (SMILES) | MIC [1, 11] [µg/mL] | MIC [2, 12] [µg/mL] | MIC [3, 13] [µg/mL] | IC50 [4] [µM] | MIC [5, 14] [µg/mL] | MIC (E. faecium ATCC 700221; [15]) [µg/mL] | MIC (S. pneumoniae ATCC 49619) [µg/mL] | MIC [6] [µg/mL] | MIC (K. pneumoniae ATCC 43816) [µg/mL] | MIC (H. influenzae ATCC 49247) [µg/mL] | MIC (A. baumannii ATCC 17978) [µg/mL] | MIC [7, 16] [µg/mL] | MIC [8] [µg/mL] | MIC [9, 17] [µg/mL] | MIC [9, 18] [µg/mL] | MIC [10] [µg/mL] | also measured
1 | Cc1cccc(C(CCNC2CCC(N)CC2)c2cn(CC34CC5CC(CC(C5)C3)C4)c3ccccc23)c1 [Compound 232, (1S,4S)-N1-(3-(1-(((1S,4S)-adamantan-1-yl)methyl)-1H-indol-3-yl)-3-(m-tolyl)propyl)cyclohexane-1,4-diamine hydrochloride salt] | 4 | 32 | 4 | 8.3 | 4 | 2 | 8 | 4 | 8 | 8 | 8 | 32 | 4 | 5 | 4 | 2 | 
2 | Cc1cccc(CC(CC(=O)N[C@H]2CC[C@H](N)CC2)c2cn(CC3CCCCC3)c3ccccc23)c1.Cl (stereo partly drawn) [Compound 202, N-((1R,4R)-4-aminocyclohexyl)-3-(1-(cyclohexylmethyl)-1H-indol-3-yl)-4-(m-tolyl)butanamide hydrochloride salt] | 8 | 32 | 16 | 10.7 | 8 | 4 | 16 | 16 | 64 | 16 | 32 | 32 | 4 | 33 | 128 | 2 | 
3 | Cc1cccc(C(CCNC2CCCCC2)c2cn(CC3CCCCC3)c3ccccc23)c1.Cl (stereo not shown) [Compound 215, N-(3-(1-(cyclohexylmethyl)-1H-indol-3-yl)-3-(m-tolyl)propyl) cyclohexanamine hydrochloride salt] | 2 | > 128 | 2 |  | > 128 | 1 | 2 | 64 | > 128 | 16 | > 128 | > 128 | 1 | > 128 | > 128 | 2 | MIC [3, 19]: 2 µg/mL
4 | Cc1ccccc1C(CCNC1CCC(N)CC1)c1cn(CC2CCCCC2)c2ccccc12 (stereo not shown) [Compound 186, N1-(3-(1-(cyclohexylmethyl)-1H-indol-3-yl)-3-(o-tolyl)propyl)cyclohexane-1,4-diamine hydrochloride salt] |  |  |  | 3.6 |  |  | 8 | 2 | 8 | 8 | 4 |  | 2 | 4 | 4 | 4 | MIC [1, 20]: 4 µg/mL; MIC [2, 21]: 16 µg/mL; MIC ([3]; ATCC29213, read-out: S. aureus ATCC 29213 MIC, Table XIII): 4 µg/mL; MIC [3, 22]: 4 µg/mL; MIC [5]: 4 µg/mL; MIC (E. faecium ATCC 700221; [23]): 2 µg/mL; MIC [7]: 32 µg/mL
5 | NC1CCC(NCCC(c2cccc(Cl)c2)c2cn(CC3CCCCC3)c3ccccc23)CC1 [Compound 170, (1S,4S)-N1-(3-(3-chlorophenyl)-3-(1-(cyclohexylmethyl)-1H-indol-3-yl)propyl) cyclohexane-1,4-diamine hydrochloride salt] | 2 | 16 | 2 | 16 | 4 | 2 | 8 | 2 | 8 | 4 | 4 | 32 | 2 | 4 | 4 | 2 | 
6 | Cc1cccc(C(CCN2CCC(N)CC2)c2cn(CC3CCCCC3)c3ccccc23)c1 (stereo not shown) [Compound 216, 1-(3-(1-(cyclohexylmethyl)-1H-indol-3-yl)-3-(m-tolyl)propyl)piperidin-4-amine hydrochloride salt] |  |  |  | 25 |  |  | 8 | 4 | 128 | 4 | 8 |  | 2 | 4 | 8 | 4 | MIC [1, 20]: 4 µg/mL; MIC [2, 21]: 64 µg/mL; MIC [3, 22]: 4 µg/mL; MIC [5]: 4 µg/mL; MIC (E. faecium ATCC 700221; [23]): 2 µg/mL; MIC [7]: 64 µg/mL
7 | NC1CCC(NCCC(c2cccc(C(F)(F)F)c2)c2cn(CC3CCCCC3)c3ccccc23)CC1 [Compound 168, (1S,4S)-N1-(3-(1-(cyclohexylmethyl)-1H-indol-3-yl)-3-(3-(trifluoromethyl)phenyl)propyl)cyclohexane-1,4-diamine hydrochloride salt] | 2 | 16 | 2 | 11 | 4 | 2 | 8 | 4 | 4 | 4 | 4 | 16 | 2 | 5 | 4 | 2 | 
8 | Cc1cccc(C(CC(=O)Nc2ccc(CN)cc2)c2cn(CC3CCCCC3)c3ccccc23)c1.Cl (stereo not shown) [Compound 139, N-(4-(aminomethyl)phenyl)-3-(1-(cyclohexylmethyl)-1H-indol-3-yl)-3-(m-tolyl)propanamide hydrochloride salt] | 4 | > 128 | 4 | 46 | 8 | 4 | 16 | 32 | > 128 | 16 | > 128 | > 128 | 2 | > 512 | > 128 | 2 | 
9 | Cc1cccc(C(CC(=O)NCCC2CCNCC2)c2cn(CC3CCCCC3)c3ccc(Br)cc23)c1.Cl (stereo not shown) [Compound 120, 3-(5-bromo-1-(cyclohexylmethyl)-1H-indol-3-yl)-N-(2-(piperidin-4-yl)ethyl)-3-(m-tolyl)propanamide hydrochloride salt] | 4 | 64 | 2 | 11 | 32 | 4 | 16 | 16 | 64 | 16 | 64 | 64 | 2 | > 512 | 32 | 2 | 
10 | NC1CCC(NC(=O)CC(c2cccc(OC(F)(F)F)c2)c2cn(CC3CCCCC3)c3ccccc23)CC1 [Compound 143, N-((1S,4S)-4-aminocyclohexyl)-3-(1-(cyclohexylmethyl)-1H-indol-3-yl)-3-(3-(trifluoromethoxy)phenyl) propanamide hydrochloride salt] |  |  |  | 20 |  |  | 16 | 64 | > 128 | 16 | > 128 |  | 2 | > 512 | > 128 | 2 | MIC [1, 20]: 4 µg/mL; MIC [2, 21]: > 128 µg/mL; MIC [3, 22]: 4 µg/mL; MIC [5]: 16 µg/mL; MIC (E. faecium ATCC 700221; [23]): 4 µg/mL; MIC [7]: > 128 µg/mL
11 | Cc1cccc(C(CCNC2CCNCC2)c2cn(CC3CCCCC3)c3ccc(Br)cc23)c1.Cl (stereo not shown) [Compound 163, N-(3-(5-bromo-1-(cyclohexylmethyl)-1H-indol-3-yl)-3-(m-tolyl)propyl)piperidin-4-amine hydrochloride salt] | 2 | 16 | 4 | 8.5 | 4 | 2 | 8 | 4 | 4 | 4 | 4 | 16 | 2 | 2 | 4 | 1 | MIC [3, 19]: 2 µg/mL

From US20210246115A1 (Bioimics AB, priority 2017, published 2021)
